# Earlier results in article PMC6337720 (Inorganic chemistry, 2018).
# Settings: aerated CH3CN
smiles,measurement,value
F[P-](F)(F)(F)(F)F.F[P-](F)(F)(F)(F)F.[Ru+2].c1ccc(-c2ccccn2)nc1.c1ccc(-c2ccccn2)nc1.c1ccc(-c2ccccn2)nc1 [[Ru(bpy)3](PF6)2],ΦΔ singlet oxygen quantum yield of the standard,0.56
